{"source": "patent EP4389827A1", "about": "“AMINOGLYCOSIDE-LINKED PHOTOSENSITIZERS” (Centre National de la Recherche Scientifique, priority 2022, dated 2024)", "key": {"[1]": {"system": "A. baumannii DSM30011", "assay": "Minimal inhibitory concentration (EUCAST), with or without 660 nm irradiation", "format": "cell-based, Acinetobacter baumannii", "settings": "Acinetobacter baumannii, DSM30011, light or radiation study, 18 h", "procedure": "(§1) Acinetobacter baumannii DSM30011, Bacillus subtilis 168, Pseudomonas aeruginosa PA14, P. aeruginosa PAO1, Staphylococcus aureus Mu50, S. aureus Newman and S. aureus USA300 were all grown in MHB-CA at 37°C with an agitation of 180 rpm. Candida albicans SC5314 was grown in yeast extract peptone dextrose broth at 35°C with an agitation of 180 rpm.\n(§2) Minimal inhibitory concentrations (MICs) for selected bacteria were investigated according to the EUCAST guidelines. Serial dilutions of the compounds, photosensitizers and aminoglycosides were made in MHB-CA in 384-well plates. Stationary-phase cells were diluted in MHB-CA to have a final concentration of 5.5 × 10^5 CFU/mL. Samples were incubated in the dark for 20 minutes at 37°C and either irradiated at 660 nm for 30 minutes with a LED device or kept in the dark. Irradiated samples received a total of 168 mJ/mm^2. Plates were then incubated at 37°C for 18 hours and MICs were evaluated visually. Triplicates were done and the synergy, or fractional inhibitory concentration (FIC), was calculated according to Doern et al., 2014: FIC = (MIC of AB)/(MIC of A) + (MIC of AB)/(MIC of B) [formula]"}, "[2]": {"system": "S. aureus Mu50", "assay": "Antibacterial photodynamic therapy on planktonic cells (CFU count)", "format": "cell-based, Staphylococcus aureus", "settings": "non-irradiated samples (Figure 3b)", "procedure": "as §1\n(§3) Cells were brought to stationary phase by incubating them in MHB-CA for at least 18 hours at 37°C with 180 rpm and diluted to an optical density of 1.0 just before the experiment. Cells were incubated for 20 minutes with either the compounds, photosensitizers alone, or aminoglycosides alone. Unless stated otherwise, a concentration of 10 µM was used for all experiments and samples were irradiated for 30 minutes at 660 nm with the Solis-660C lamp from ThorLabs, receiving a total of 5 J/mm^2. After illumination, cells were washed with phosphate-buffered saline (PBS) 1X, serially diluted and plated on Mueller-Hinton agar. The next day, colony forming units (CFUs) were counted."}, "[3]": {"system": "S. aureus Newman", "assay": "Antibacterial photodynamic therapy on planktonic cells (CFU count)", "format": "cell-based, Staphylococcus aureus", "settings": "non-irradiated samples (Figure 3d)", "procedure": "as §1, §3"}, "[4]": {"system": "S. aureus Mu50", "assay": "Antibacterial photodynamic therapy on biofilm cells", "format": "cell-based, Staphylococcus aureus", "settings": "- irradiation", "excerpt": "(§4) Compounds Neo-Ce6 and Tobra-Ce6 caused strong drop in survival for biofilms of A. baumannii […], P. aeruginosa species and S. aureus Mu50. […] Tobra-Ce6 had its strongest effect on A. baumannii DSM30011 with more than 4 log10 CFU/mL drop in survival and a drop of 1.7 log10 CFU/mL in P. aeruginosa PA14. Table 2: aPDT results for biofilm cells expressed in drop in the log10 CFU/mL compared to controls."}, "[5]": {"system": "S. aureus Newman", "assay": "Antibacterial photodynamic therapy on biofilm cells", "format": "cell-based, Staphylococcus aureus", "settings": "- irradiation", "excerpt": "as §4"}, "[6]": {"system": "S. aureus USA300", "assay": "Antibacterial photodynamic therapy on biofilm cells", "format": "cell-based, Staphylococcus aureus", "settings": "- irradiation", "excerpt": "as §4"}, "[7]": {"system": "S. aureus USA300 persister cells", "assay": "Antibacterial photodynamic therapy on persister cells", "format": "cell-based, Staphylococcus aureus", "settings": "persister cells (6 hours, 2 mM neomycin); aPDT at 10 µM, 5 J/mm^2 (Figure 6a)", "procedure": "Persister plateau and AG concentration varied from one species to another. In S. aureus USA300, a stable plateau was obtained following 6 hours of incubation with 2 mM of neomycin. […] This control is crucial to make sure that a persister state has been achieved. […] As there are no significant differences between irradiated and non-irradiated samples, however, the production of singlet oxygen may not be the factor leading to cell death. In S. aureus Newman, cells were treated for 24 hours with 1 mM of neomycin. […] Although this synergy does exist, like in S. aureus USA300, there is no significant difference in survival for irradiated and non-irradiated samples, except for Ce6."}, "[8]": {"system": "P. aeruginosa PA14", "assay": "Minimal inhibitory concentration (EUCAST), with or without 660 nm irradiation", "format": "cell-based, Pseudomonas aeruginosa", "settings": "Pseudomonas aeruginosa, PA14, light or radiation study, 18 h", "procedure": "as §1, §2"}, "[9]": {"system": "P. aeruginosa PAO1", "assay": "Minimal inhibitory concentration (EUCAST), with or without 660 nm irradiation", "format": "cell-based, Pseudomonas aeruginosa", "settings": "Pseudomonas aeruginosa, PAO1, light or radiation study, 18 h", "procedure": "as §1, §2"}, "[10]": {"system": "C. albicans SC5314", "assay": "Minimal inhibitory concentration, with or without 660 nm irradiation", "format": "cell-based", "settings": "Candida albicans, SC5314, light or radiation study, 18 h", "procedure": "as §1, §2"}, "[11]": {"system": "P. aeruginosa PA14", "assay": "Antibacterial photodynamic therapy on biofilm cells", "format": "cell-based, Pseudomonas aeruginosa", "settings": "- irradiation", "excerpt": "as §4"}, "[12]": {"system": "P. aeruginosa PAO1", "assay": "Antibacterial photodynamic therapy on biofilm cells", "format": "cell-based, Pseudomonas aeruginosa", "settings": "- irradiation", "excerpt": "as §4"}, "[13]": {"system": "S. aureus Newman", "assay": "Minimal inhibitory concentration (EUCAST), with or without 660 nm irradiation", "format": "cell-based, Staphylococcus aureus", "settings": "Staphylococcus aureus, NEWMAN, light or radiation study, 18 h", "procedure": "as §1, §2"}, "[14]": {"system": "E. coli KanR", "assay": "Minimal inhibitory concentration (EUCAST), with or without 660 nm irradiation", "format": "cell-based", "settings": "Escherichia coli, light or radiation study, 18 h", "procedure": "as §2"}, "[15]": {"system": "K. pneumoniae LM21", "assay": "Minimal inhibitory concentration (EUCAST), with or without 660 nm irradiation", "format": "cell-based", "settings": "Klebsiella pneumoniae, LM21, light or radiation study, 18 h", "procedure": "as §2"}, "[16]": {"system": "E. coli pET-29", "assay": "Minimal inhibitory concentration (EUCAST), with or without 660 nm irradiation", "format": "cell-based", "settings": "Escherichia coli, PET29, light or radiation study, 18 h; aminoglycoside alone, irradiation state not given", "procedure": "as §2"}, "[17]": {"system": "S. aureus Mu50", "assay": "Minimal inhibitory concentration (EUCAST), with or without 660 nm irradiation", "format": "cell-based", "settings": "Staphylococcus aureus, MU50, light or radiation study, 18 h", "procedure": "as §1, §2"}, "[18]": {"system": "S. aureus USA300", "assay": "Minimal inhibitory concentration (EUCAST), with or without 660 nm irradiation", "format": "cell-based", "settings": "Staphylococcus aureus, USA300, light or radiation study, 18 h, aminoglycoside alone, irradiation state not given", "procedure": "as §1, §2"}, "[19]": {"system": "A. baumannii DSM30011", "assay": "Antibacterial photodynamic therapy on biofilm cells", "format": "cell-based, Acinetobacter baumannii", "settings": "- irradiation", "excerpt": "as §4"}, "[20]": {"system": "B. subtilis 168", "assay": "Minimal inhibitory concentration (EUCAST), with or without 660 nm irradiation", "format": "cell-based, Bacillus subtilis", "settings": "Bacillus subtilis, 168, light or radiation study, 18 h", "procedure": "as §1, §2"}, "[21]": {"system": "P. aeruginosa PAO1", "assay": "Antibacterial photodynamic therapy on planktonic cells (CFU count)", "format": "cell-based", "settings": "Pseudomonas aeruginosa, PAO1, light or radiation study, aminoglycoside alone, Figure 5d (without irradiation), read-out: drop of survival", "procedure": "as §1, §3"}, "[22]": {"settings": "aminoglycoside alone, irradiation state not given, read-out: MIC"}}, "note": "Where two headings read alike, the source gives them in different places."}
{"smiles": "NC[C@@H]1O[C@H](O[C@H]2[C@@H](O)[C@H](O[C@@H]3[C@@H](O)[C@H](N)C[C@H](N)[C@H]3O[C@H]3O[C@H](CN)[C@@H](O)[C@H](O)[C@H]3N)O[C@@H]2CO)[C@H](N)[C@@H](O)[C@@H]1O", "note": "[Neomycin, neomycin]", "values": [{"measurement": "MIC", "setting": "[1]", "result": 8, "unit": "µM"}, {"measurement": "drop in CFUs (in words)", "setting": "[2]", "result": "does not lead to significantly less survival"}, {"measurement": "drop in CFUs (in words)", "setting": "[3]", "result": "does not lead to significantly less survival"}, {"measurement": "drop in the log10 CFU/mL compared to controls", "setting": "[4]", "result": 0.18, "unit": "log10 CFU/mL"}, {"measurement": "drop in the log10 CFU/mL compared to controls", "setting": "[5]", "result": -0.07, "unit": "log10 CFU/mL"}, {"measurement": "drop in the log10 CFU/mL compared to controls", "setting": "[6]", "result": 0.16, "unit": "log10 CFU/mL"}, {"measurement": "persister cell survival (in words)", "setting": "[7]", "result": "no significant drop in survival"}, {"measurement": "MIC", "setting": "[8]", "result": 4, "unit": "µM"}, {"measurement": "MIC", "setting": "[9]", "result": 16, "unit": "µM"}, {"measurement": "MIC", "setting": "[10]", "result": "> 512", "unit": "µM"}, {"measurement": "drop in the log10 CFU/mL compared to controls", "setting": "[11]", "result": 0.01, "unit": "log10 CFU/mL"}, {"measurement": "drop in the log10 CFU/mL compared to controls", "setting": "[12]", "result": 0.28, "unit": "log10 CFU/mL"}, {"measurement": "MIC", "setting": "[13]", "result": 8, "unit": "µM"}, {"measurement": "MIC", "setting": "[14]", "result": "> 512", "unit": "µM"}, {"measurement": "MIC", "setting": "[15]", "result": 2, "unit": "µM"}, {"measurement": "MIC", "setting": "[16]", "result": "128 to 256", "unit": "µM"}, {"measurement": "MIC", "setting": "[17]", "result": "> 512", "unit": "µM"}, {"measurement": "MIC", "setting": "[18]", "result": 4, "unit": "µM"}, {"measurement": "drop in the log10 CFU/mL compared to controls", "setting": "[19]", "result": 1.33, "unit": "log10 CFU/mL"}, {"measurement": "MIC", "setting": "[20]", "result": 0.4, "unit": "µM"}]}
{"smiles": "NC[C@H]1O[C@H](O[C@H]2[C@H](O)[C@@H](O[C@H]3O[C@H](CO)[C@@H](O)[C@H](N)[C@H]3O)[C@H](N)C[C@@H]2N)[C@H](N)C[C@@H]1O", "note": "[Tobramycin, tobramycin]", "values": [{"measurement": "MIC", "setting": "[1]; [22]", "result": "4 to 8", "unit": "µM"}, {"measurement": "drop in the log10 CFU/mL compared to controls", "setting": "[4]", "result": -0.02, "unit": "log10 CFU/mL"}, {"measurement": "drop in the log10 CFU/mL compared to controls", "setting": "[5]", "result": 0.25, "unit": "log10 CFU/mL"}, {"measurement": "drop in the log10 CFU/mL compared to controls", "setting": "[6]", "result": 0.26, "unit": "log10 CFU/mL"}, {"measurement": "MIC", "setting": "[8]; [22]", "result": "1 to 2", "unit": "µM"}, {"measurement": "MIC", "setting": "[9]; [22]", "result": "0.5 to 1", "unit": "µM"}, {"measurement": "log reduction at 10 µM", "setting": "[21]", "result": "~2.3"}, {"measurement": "drop in the log10 CFU/mL compared to controls", "setting": "[11]", "result": 0.79, "unit": "log10 CFU/mL"}, {"measurement": "drop in the log10 CFU/mL compared to controls", "setting": "[12]", "result": 0.39, "unit": "log10 CFU/mL"}, {"measurement": "MIC", "setting": "[13]; [22]", "result": 4, "unit": "µM"}, {"measurement": "MIC", "setting": "[17]; [22]", "result": "> 512", "unit": "µM"}, {"measurement": "MIC", "setting": "[18]", "result": 4, "unit": "µM"}, {"measurement": "drop in the log10 CFU/mL compared to controls", "setting": "[19]", "result": 0.93, "unit": "log10 CFU/mL"}]}
